Source: patent publication US20230150944A1, “PESTICIDALLY ACTIVE HETEROCYCLIC DERIVATIVES WITH SULFOXIMINE CONTAINING SUBSTITUENTS” (SYNGENTA CROP PROTECTION AG, priority 2018, published 2023)

Legend:
Assay type in all cases: in vivo
[1] = system: Myzus persicae (Green Peach Aphid); assay: Example B4: Activity on Myzus persicae, sunflower leaf disc spray; details: foliar, 144 h, application rate of 200 ppm, mixed-age aphids on sprayed sunflower leaf discs, 6 days after infestation
Description: Example B4: Activity on Myzus persicae (Green Peach Aphid)
Sunflower leaf discs were placed onto agar in a 24-well microtiter plate and sprayed with aqueous test solutions prepared from 10′000 ppm DMSO stock solutions. After drying, the leaf discs were infested with an aphid population of mixed ages. The samples were assessed for mortality 6 days after infestation.

[2] = system: Myzus persicae (Green Peach Aphid); assay: Example B5: Activity on Myzus persicae, pea seedling roots in test solution; details: 144 h, test rate of 24 ppm, roots of infested pea seedlings placed into test solution, 6 days
Description: Example B5: Activity on Myzus persicae (Green Peach Aphid)
Roots of pea seedlings infested with an aphid population of mixed ages were placed directly into aqueous test solutions prepared from 10′000 DMSO stock solutions. The samples were assessed for mortality 6 days after placing seedlings into test solutions.

[3] = system: Plutella xylostella (Diamond Back Moth); assay: Example B11: Activity on Plutella xylostella, artificial diet, eggs; details: 192 h, application rate of 200 ppm, 8 days after infestation, read-out: effect in at least one of the two categories (mortality or growth inhibition)
Description: Example B11: Activity on Plutella xylostella (Diamond Back Moth)
24-well microtiter plates with artificial diet were treated with aqueous test solutions prepared from 10′000 ppm DMSO stock solutions by pipetting. After drying, Plutella eggs were pipetted through a plastic stencil onto a gel blotting paper and the plate was closed with it. The samples were assessed for mortality and growth inhibition in comparison to untreated samples 8 days after infestation.

[4] = system: Diabrotica balteata (Corn Root Worm); assay: Example B2: Activity on Diabrotica balteata, maize sprout spray; details: 96 h, application rate of 200 ppm, L2 larvae on maize sprouts, 4 days after infestation, read-out: effect in at least one of the two categories (mortality or growth inhibition)
Description: Example B2: Activity on Diabrotica balteata (Corn Root Worm)
Maize sprouts placed onto an agar layer in 24-well microtiter plates were treated with aqueous test solutions prepared from 10′000 ppm DMSO stock solutions by spraying. After drying, the plates were infested with L2 larvae (6 to 10 per well). The samples were assessed for mortality and growth inhibition in comparison to untreated samples 4 days after infestation.

[5] = system: Spodoptera littoralis (Egyptian Cotton Leaf Worm); assay: Example B7: Activity on Spodoptera littoralis, cotton leaf disc spray; details: foliar, 72 h, application rate of 200 ppm, L1 larvae on cotton leaf discs, 3 days after infestation, read-out: control (mortality, anti-feeding effect or growth inhibition)
Description: Example B7: Activity on Spodoptera littoralis (Egyptian Cotton Leaf Worm)
Cotton leaf discs were placed onto agar in 24-well microtiter plates and sprayed with aqueous test solutions prepared from 10′000 ppm DMSO stock solutions. After drying the leaf discs were infested with five L1 larvae. The samples were assessed for mortality, anti-feeding effect, and growth inhibition in comparison to untreated samples 3 days after infestation. Control of Spodoptera littoralis by a test sample is given when at least one of the categories mortality, anti-feedant effect, and growth inhibition is higher than the untreated sample.

[6] = system: Bemisia tabaci (Cotton White Fly); assay: Example B1: Activity on Bemisia tabaci, cotton leaf disc spray; details: foliar, 144 h, application rate of 200 ppm, adult white flies on cotton leaf discs, 6 days after incubation
Description: Example B1: Activity on Bemisia tabaci (Cotton White Fly)
Cotton leaf discs were placed on agar in 24-well microtiter plates and sprayed with aqueous test solutions prepared from 10′000 ppm DMSO stock solutions. After drying the leaf discs were infested with adult white flies. The samples were checked for mortality 6 days after incubation.

[7] = system: Euschistus heros (Neotropical Brown Stink Bug); assay: Example B3: Activity on Euschistus heros, soybean leaf spray; details: 120 h, application rate of 200 ppm, N2 nymphs on soybean leaves, 5 days after infestation, read-out: effect in at least one of the two categories (mortality or growth inhibition)
Description: Example B3: Activity on Euschistus heros (Neotropical Brown Stink Bug)
Soybean leaves on agar in 24-well microtiter plates were sprayed with aqueous test solutions prepared from 10′000 ppm DMSO stock solutions. After drying the leaves were infested with N2 nymphs. The samples were assessed for mortality and growth inhibition in comparison to untreated samples 5 days after infestation.

[8] = system: Plutella xylostella (Diamond Back Moth); assay: Example B6: Activity on Plutella xylostella, artificial diet, L2 larvae; details: 120 h, application rate of 200 ppm, 5 days after infestation, read-out: effect in at least one of the two categories (mortality or growth inhibition)
Description: Example B6: Activity on Plutella xylostella (Diamond Back Moth)
24-well microtiter plates with artificial diet were treated with aqueous test solutions prepared from 10′000 ppm DMSO stock solutions by pipetting. After drying, the plates were infested with L2 larvae (10 to 15 per well). The samples were assessed for mortality and growth inhibition in comparison to untreated samples 5 days after infestation.

[9] = system: Tetranychus urticae (Two-Spotted Spider Mite); assay: Example B10: Activity on Tetranychus urticae, bean leaf disc spray; details: foliar, 192 h
Description: Example B10: Activity on Tetranychus urticae (Two-Spotted Spider Mite)
Bean leaf discs on agar in 24-well microtiter plates were sprayed with aqueous test solutions prepared from 10′000 ppm DMSO stock solutions. After drying the leaf discs were infested with a mite population of mixed ages. The samples were assessed for mortality on mixed population (mobile stages) 8 days after infestation.

CCS(=N)(=O)c1cc(C2(C#N)CC2)cnc1-n1cc2cnc(C(F)(F)F)cc2n1 (stereo not drawn) [Example P17, 1-[5-(ethylsulfonimidoyl)-6-[6-(trifluoromethyl)pyrazolo[4,3-c]pyridin-2-yl]-3-pyridyl] cyclopropanecarbonitrile]
≥ 80%: mortality at 200 ppm [1] | mortality at 24 ppm [2] | percent effect (mortality or growth inhibition) at 200 ppm [3]

CCS(=N)(=O)c1cc(C2CC2)cnc1-c1cn2ncc(C(F)(F)F)cc2n1 (stereo not drawn) [Example P16, [5-cyclopropyl-2-[7-(trifluoromethyl)imidazo[1,2-b]pyridazin-2-yl]-3-pyridyl]-ethyl-imino-oxo-λ^6-sulfane]
≥ 80%: percent effect (mortality or growth inhibition) at 200 ppm [4] | mortality at 200 ppm [1] | mortality at 24 ppm [2] | percent control (mortality, anti-feedant effect or growth inhibition) at 200 ppm [5] | percent effect (mortality or growth inhibition) at 200 ppm [3]

CCS(=N)(=O)c1cc(C2CC2)cnc1-c1nc2cc(S(=O)(=O)C(F)(F)F)ccc2o1 (stereo not drawn) [Example P19, [5-cyclopropyl-2-[5-(trifluoromethylsulfonyl)-l ,3-benzoxazol-2-yl]-3-pyridyl]-ethyl-imino-oxo-λ^6-sulfane]
≥ 80%: percent effect (mortality or growth inhibition) at 200 ppm [3]

CCS(=N)(=O)c1cc(C2CC2)cnc1-c1nc2cc(S(=O)(=O)C(F)(F)F)ncc2n1C (stereo not drawn) [Example P3, [5-cyclopropyl-2-[3-methyl-6-(trifluoromethylsulfonyl)imidazo[4,5-c]pyridin-2-yl]-3-pyridyl]-ethyl-imino-oxo-λ^6-sulfane]
≥ 80%: mortality at 200 ppm [6] | percent effect (mortality or growth inhibition) at 200 ppm [4] | percent effect (mortality or growth inhibition) at 200 ppm [7] | mortality at 200 ppm [1] | mortality at 24 ppm [2] | percent effect (mortality or growth inhibition) at 200 ppm [8] | percent control (mortality, anti-feedant effect or growth inhibition) at 200 ppm [5] | mortality at 200 ppm [9]

CCS(=N)(=O)c1cc(C2CC2)cnc1-c1nc2cc(SC(F)(F)F)ccc2o1 (stereo not drawn) [Example P18, [5-cyclopropyl-2-[5-(trifluoromethylsulfanyl)-1,3-benzoxazol-2-yl]-3-pyridyl]-ethyl-imino-oxo-λ^6-sulfane]
≥ 80%: percent effect (mortality or growth inhibition) at 200 ppm [3]
